Experimental data published in patent publication US20260083769A1, “2-Aminopropane-1,3-Diol-Capped Cationic Peptoids for Nucleic Acid Delivery” (NUTCRACKER THERAPEUTICS, INC., priority 2022, published 2026).
Like-named read-outs stand apart in the source and are kept apart here. Where a SMILES comes first, the peptide text is derived from it. [ ]: non-standard residue; d: D form. Gly(Nα-oleyl) = CCCCCCCC/C=C\CCCCCCCCNCC(=O)O; Gly(N-dodecyl) = CCCCCCCCCCCCNCC(=O)O; N(CH(CH2OH)2)Gly = O=C(O)CNC(CO)CO; N(octyl)Gly = CCCCCCCCNCC(=O)O; NDecylGly = CCCCCCCCCCNCC(=O)O; NHexGly = CCCCCCNCC(=O)O

Legend:
[1] = Particle size and polydispersity (PDI) of delivery vehicles by dynamic light scattering; assay type: physicochemical
Method: The resulting delivery vehicle complexes were evaluated by dynamic light scattering (DLS) to determine the volume average particle size/diameter (nm) and the size polydispersity index (PDI) within the delivery vehicle complex.
Particle size. Particle sizes and size distributions were measured using a Wyatt DynaPro® Plate Reader III. In general, formulated samples were diluted to 2 ng/μL in 100 µL PBS. Data is reported as the hydrodynamic diameter (in nm) of the cumulant fit of the correlation function, and the polydispersity of that measurement.
In one particular instance, the size and polydispersity (PDI) of delivery vehicles was measured by dynamic light scattering in PBS using a DynaPro® plate reader III. The zeta potential of delivery vehicles was determined using Nano-ZS™ particle analyzer. Zeta sample was diluted to 30 uM total lipid in a weakly buffered solution of 10 mM HEPES, 10 mM MES, 10 mM ammonium acetate pH 7. Measurements were collected in duplicate for over 30 run with the voltage manually set to […]

[2] = Percent encapsulated mRNA, RiboGreen assay; assay type: physicochemical
Method: Percent encapsulation. The percentage of mRNA encapsulated within the delivery vehicle complexes containing Fluc mRNA was determined using a modified RiboGreen® assay. In general, formulated mRNA samples were diluted to 500 ng/ml in Tris-EDTA buffer with or without Triton-X™. RiboGreen® (Invitrogen) was added at a 200-fold dilution, and the plate was incubated for 5 minutes. Fluorescence was measured at Ex. […]/Em. 520 nm and encapsulated mRNA was calculated by taking the ratio of fluorescence for non-lysed particles versus lysed particles.
The mRNA concentration and the percentage of encapsulated mRNA were determined using a fluorescence-based Quant-iT™ RiboGreen® RNA Reagent Kit using a literature procedure. To determine the mRNA concentration, delivery vehicles were incubated with 2% Triton™ X-100 for 10 min to release entrapped mRNA, followed by addition of RiboGreen® RNA reagent. The fluorescence intensity of mRNA-RiboGreen® reagent complex (excitation at 485 nm and emission at 530 nm) was detected using a microplate reader. The ratio of fluorescence without and with Triton™ X-100 were used to calculate the percentage of encapsulated mRNA.

[3] = RBC hemolysis as metric for fusogenicity; assay type: cell-based; details: sheep red blood cells (RBCs), 5% v/v
Method: RBC hemolysis was used as a metric for fusogenicity of LNPs at low pH. […] Particles were diluted to […] total lipid in well with 5% RBC solution and incubated at 37° C. for 45 min. Supernatant was collected and absorbance read on a microplate reader at 425 nm. Fusion was normalized to a fully lysed sample with 2% Triton™ and a buffer-only control. % hemolysis=100*[(ABS T-background)−(ABS sample-background)/(ABS T-background)].

[4] = Apparent particle pKa, TNS fluorescence assay; assay type: physicochemical; details: Table 5; apparent particle pKa of delivery vehicle
Method: The apparent particle pKa was assessed by a TNS fluorescence assay. Briefly, particles were diluted to 130 uM total lipid in TNS buffer ranging in pH 3-11 for 10 minutes with […] of TNS probe. The fluorescence was measured at room temperature in a plate reader ex 320/em 445. Fluorescence intensity was normalized to the minimal and maximal values and the pKa was determined by a 3 parameter fit to determine the half maximum of the curve.

[5] = Table 6, comparative peptoid delivery vehicle
[6] = Table 6, comparative peptoid delivery vehicle, pH 5, read-out: Hemolysis at pH 5
[7] = Table 6, comparative peptoid delivery vehicle, pH 7, read-out: Hemolysis at pH 7
[8] = Table 5, delivery vehicle comprising the peptoid, Formulation D22, fLuc mRNA
[9] = Table 5, delivery vehicle, 37° C. 45 min, pH 5, read-out: Hemolysis at pH 5
[10] = Table 5, delivery vehicle, 37° C. 45 min, pH 7, read-out: Hemolysis at pH 7

| Compound | PDI [1, 5] | Particle Size (nm) [1, 5] [nm] | % Encapsulation [2, 5] [%] | hemolysis at 45 min, 150 mM total lipid [3, 6] [%] | hemolysis at 45 min, 150 mM total lipid [3, 7] [%] | PDI [1, 8] | Particle Size (nm) [1, 8] [nm] | % Encapsulation [2, 8] [%] | hemolysis at 45 min, 150 mM total lipid [3, 9] [%] | hemolysis at 45 min, 150 mM total lipid [3, 10] [%] | pKa (TNS) [4] |
| --- | --- | --- | --- | --- | --- | --- | --- | --- | --- | --- | --- |
| CCCCCCCCCCCCN(CC(N)=O)C(=O)CN(CCCCCCCCCCCC)C(=O)CN(CCCCCCCCCCCC)C(=O)CN(CCCCCCCCCCCC)C(=O)CNCCO [Compound C3, reference compound] | 0.196 | 65.3 | 87.5 | 24.4 | 51.1 | – | – | – | – | – | – |
| CCCCCCCCCCCCN(CC(N)=O)C(=O)CN(CCCCCCCCCCCC)C(=O)CN(CCCCCCCCCCCC)C(=O)CN(CCCCCCCCCCCC)C(=O)CNCCCN1CCOCC1 [Compound C10, reference compound] | 0.520 | 84.6 | 86.6 | 0.6 | 1 | – | – | – | – | – | – |
| CCCCCCCCCCCCN(CC(N)=O)C(=O)CN(CCCCCCCCCCCC)C(=O)CN(CCCCCCCCCCCC)C(=O)CN(CCCCCCCCCCCC)C(=O)CNCCCOC [Compound C7, reference compound] | 0.219 | 71.3 | 93.1 | 31.6 | 65.5 | – | – | – | – | – | – |
| CCCCCCCCCCCCN(CC(N)=O)C(=O)CN(CCCCCCCCCCCC)C(=O)CN(CCCCCCCCCCCC)C(=O)CN(CCCCCCCCCCCC)C(=O)CN(CCO)CCO [Compound C4, reference compound] | 0.186 | 67.7 | 90.5 | 4.9 | 12 | – | – | – | – | – | – |
| CCCCCCCCCCN(CC(N)=O)C(=O)CN(CCCCCCCC)C(=O)CN(CCCCCCCC)C(=O)CN(CCCCCCCCCC)C(=O)CN(CCCCCCCC)C(=O)CN(CCCCCCCC)C(=O)CNC(CO)CO [Compound 26] (H-[N(CH(CH2OH)2)Gly][N(octyl)Gly][N(octyl)Gly][NDecylGly][N(octyl)Gly][N(octyl)Gly][NDecylGly]-NH2) | – | – | – | – | – | Multimodal | 421.9 | 66.1 | – | – | – |
| CCCCCCCCN(CC(=O)N(CCCCCCCC)CC(=O)N(CCCCCC)CC(=O)N(CCCCCCCC)CC(=O)N(CCCCCCCC)CC(=O)N(CCCCCC)CC(N)=O)C(=O)CNC(CO)CO [Compound 25] (H-[N(CH(CH2OH)2)Gly][N(octyl)Gly][N(octyl)Gly][NHexGly][N(octyl)Gly][N(octyl)Gly][NHexGly]-NH2) | – | – | – | – | – | Multimodal | 2220.3 | 24.3 | 94.6 | 94.7 | – |
| CCCCCCCCCCCCN(CC(N)=O)C(=O)CN(CCCCCCCCCCCC)C(=O)CN(CCCCCCCCCCCC)C(=O)CN(CCCCCCCCCCCC)C(=O)CNCCCN1CCCCC1 [Compound C11, reference compound] | 0.179 | 70.2 | 92.4 | 9.6 | 10.2 | – | – | – | – | – | – |
| CCCCCCCCCCCCN(CC(N)=O)C(=O)CN(CCCCCCCCCCCC)C(=O)CN(CCCCCCCCCCCC)C(=O)CN(CCCCCCCCCCCC)C(=O)CNCCCO [Compound C2, reference compound] | 0.179 | 67.0 | 92.2 | 10.6 | 37.2 | – | – | – | – | – | – |
| CCCCCCCCCCCCN(CC(=O)N(CC(=O)N(CCCCCCCCCCCC)CC(=O)N(CC(N)=O)CC(CC)CCCC)CC(CC)CCCC)C(=O)CNC(CO)CO (stereo not shown) [Compound 23] | – | – | – | – | – | Multimodal | 1269.5 | 2.3 | – | – | – |
| CCCCCCCC/C=C\CCCCCCCCN(CC(=O)N(CCCCCCCCCCCC)CC(N)=O)C(=O)CN(CCCCCCCCCCCC)C(=O)CNC(CO)CO [Compound 4] (H-[N(CH(CH2OH)2)Gly][Gly(N-dodecyl)][Gly(Nα-oleyl)][Gly(N-dodecyl)]-NH2) | – | – | – | – | – | Multimodal | 631.3 | 12.3 | – | – | – |
| CCCCCCCCCCCCN(CC(N)=O)C(=O)CN(CCCCCCCCCCCC)C(=O)CN(CCCCCCCCCCCC)C(=O)CN(CCCCCCCCCCCC)C(=O)CNCCN [Compound C1, reference compound] | 0.206 | 61.3 | 86.6 | -15.1 | 39.2 | – | – | – | – | – | – |
| CCCCCCCCCCN(CC(=O)N(CCCCCC)CC(N)=O)C(=O)CN(CCCCCCCC)C(=O)CN(CCCCCC)C(=O)CN(CCCCCCCCCC)C(=O)CN(CCCCCCCC)C(=O)CNC(CO)CO [Compound 32] (H-[N(CH(CH2OH)2)Gly][N(octyl)Gly][NDecylGly][NHexGly][N(octyl)Gly][NDecylGly][NHexGly]-NH2) | – | – | – | – | – | Multimodal | 692.4 | 23.3 | – | – | – |
| CCCCCCCCCCCCN(CC(N)=O)C(=O)CN(CCCCCCCCCCCC)C(=O)CN(CCCCCCCCCCCC)C(=O)CN(CCCCCCCCCCCC)C(=O)CNCCCn1ccnc1 [Compound C8, reference compound] | 0.192 | 60.2 | 93.5 | 2.3 | 8.1 | – | – | – | – | – | – |
| CCCCCCCCCCCCN(CC(N)=O)C(=O)CN(CCCCCCCCCCCC)C(=O)CN(CCCCCCCCCCCC)C(=O)CN(CCCCCCCCCCCC)C(=O)CNCCOC [Compound C6, reference compound] | 0.223 | 67.1 | 92.6 | 4.9 | 22.7 | – | – | – | – | – | – |
| CCCCCCCCCCCCN(CC(N)=O)C(=O)CN(CCCCCCCCCCCC)C(=O)CN(CCCCCCCCCCCC)C(=O)CN(CCCCCCCCCCCC)C(=O)CNCCCn1ccnc1C [Compound C9, reference compound] | 0.201 | 63.0 | 98.8 | 0.7 | 2.4 | – | – | – | – | – | – |
| CCCCCCCCCCCCN(CC(N)=O)C(=O)CN(CCCCCCCCCCCC)C(=O)CN(CCCCCCCCCCCC)C(=O)CN(CCCCCCCCCCCC)C(=O)CNCCCN [Compound C5, reference compound] | 0.135 | 57.3 | 97.5 | -15.6 | 39.8 | – | – | – | – | – | – |
| CCCCCCCCCCCCN(CC(N)=O)C(=O)CN(CCCCCCCCCCCC)C(=O)CN(CCCCCCCCCCCC)C(=O)CN(CCCCCCCCCCCC)C(=O)CN(CC)CCO [Compound C12, reference compound] | 0.175 | 62.4 | 95.9 | -2.4 | 3.9 | – | – | – | – | – | – |
| CCCCCCCCCCCCN(CC(N)=O)C(=O)CN(CCCCCCCCCCCC)C(=O)CN(CCCCCCCCCCCC)C(=O)CN(CCCCCCCCCCCC)C(=O)CNCCN(C)C [Compound C13, reference compound] | 0.180 | 57.6 | 95.4 | -12.3 | 8.2 | – | – | – | – | – | – |
| CCCCCCCCN(CC(N)=O)C(=O)CN(CCCCCCCC)C(=O)CN(CCCCCCCC)C(=O)CN(CC(CC)CCCC)C(=O)CN(CCCCCCCC)C(=O)CN(CCCCCCCC)C(=O)CN(CCCCCCCC)C(=O)CN(CC(CC)CCCC)C(=O)CNC(CO)CO (stereo not shown) [Compound 11] | – | – | – | – | – | 0.111 | 106.6 | 66.1 | – | – | – |
| CCCCCCCCCCN(CC(N)=O)C(=O)CN(CCCCCCCCCC)C(=O)CN(CCCCCCCCCC)C(=O)CN(CC(CC)CCCC)C(=O)CN(CCCCCCCCCC)C(=O)CN(CCCCCCCCCC)C(=O)CN(CCCCCCCCCC)C(=O)CN(CC(CC)CCCC)C(=O)CNC(CO)CO (stereo not shown) [Compound 8] | – | – | – | – | – | – | – | – | 0.5 | -0.1 | 5.786 |
